Reference: ChEMBL document CHEMBL1150529, “Synthesis and pharmacological activity of SC-53228, a leukotriene B4 receptor antagonist with high intrinsic potency and selectivity” (Bioorg Med Chem Lett, 1994)
Active and inactive are the calls of the source. The rule behind the calls is not given here.

Key:
[1] = target: Leukotriene B4 receptor 1 (Homo sapiens, UniProt Q15722); assay: Inhibitory activity against leukotriene B4 receptor
Homo sapiens = organism: Homo sapiens; assay: Compound was tested for inhibitory activity against leukotriene B4 induced neutrophil chemotaxis; format: functional
Cavia porcellus = organism: Cavia porcellus; assay: Oral effective dose for guinea pig LTB4 induced intradermal chemotaxis; format: functional
Mus musculus [2] = assay: Topical effective dose for TPA induced ear inflammation in the mouse; format: functional
Mus musculus [3] = organism: Mus musculus; assay: Oral effective dose for TPA induced ear inflammation in the mouse; format: functional
Rattus norvegicus = assay: Tested for increase in fatty acyl Co-A activity in rats dosed for 7 days at a dose of 200 mg/kg/day; NS means no significant activity; format: functional, organism-based

Sequence of Leukotriene B4 receptor 1 (Q15722 whole entry): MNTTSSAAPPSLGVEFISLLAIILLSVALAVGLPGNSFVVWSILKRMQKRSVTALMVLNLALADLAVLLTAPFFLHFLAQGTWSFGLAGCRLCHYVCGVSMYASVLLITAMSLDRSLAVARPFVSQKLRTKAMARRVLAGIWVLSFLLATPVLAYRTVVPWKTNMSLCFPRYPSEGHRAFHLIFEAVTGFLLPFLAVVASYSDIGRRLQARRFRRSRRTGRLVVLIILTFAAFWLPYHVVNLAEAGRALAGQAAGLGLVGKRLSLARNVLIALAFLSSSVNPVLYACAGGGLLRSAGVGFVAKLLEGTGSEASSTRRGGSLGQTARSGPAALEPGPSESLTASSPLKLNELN

IC50 [1] | IC50 (Homo sapiens) | Compound | ED50 (Cavia porcellus) | ED50 (Mus musculus [2]) | ED50 (Mus musculus [3]) | Activity (Rattus norvegicus)
0.85 nM | 1.3 nM | CCCc1c(OCCCOc2ccc(C(=O)NC)c(OC)c2CCC)ccc2c1OC(C(=O)O)CC2 (centres undefined) |  |  |  | 
0.1 nM | 0.11 nM | CCCc1c(OCCCOc2ccc(C(=O)NC(C)C)c(OC)c2CCC)ccc2c1OC(C(=O)O)CC2 (centres undefined) |  |  |  | 
14.5 nM | 24.4 nM | CCCc1c(OCCCOc2ccc(C(=O)NC)c(OC)c2CC2CC2)ccc2c1O[C@H](CCC(=O)O)CC2 | 0.07 mg/kg | 200 µg | < 2.5 mg/kg | inactive
10.9 nM | 21.9 nM | CCCc1c(OCCCOc2ccc(C(=O)NC)c(OC)c2CC2CC2)ccc2c1OC(CCC(=O)O)CC2 (centres undefined) |  |  |  | 
< 0.1 nM | < 0.16 nM | CCCc1c(OCCCOc2ccc(C(=O)N3CCCC3)c(OC)c2CCC)ccc2c1OC(C(=O)O)CC2 (centres undefined) |  |  |  | 
0.15 nM | < 0.14 nM | CCCc1c(OCCCOc2ccc(C(=O)N(C)C)c(OC)c2CCC)ccc2c1OC(C(=O)O)CC2 (centres undefined) |  |  |  | 
2.4 nM | 2.7 nM | CCCc1c(OCCCOc2ccc(C(N)=O)c(OC)c2CCC)ccc2c1OC(C(=O)O)CC2 (centres undefined) |  |  |  | 
 | 1 nM | CCCc1c(OCCCOc2ccc(C(C)=O)c(OC)c2CCC)ccc2c1OC(C(=O)O)CC2 (centres undefined) [SC-41390] | 1.7 mg/kg | 1400 µg | 18 mg/kg | 
5.3 nM | 13 nM | CCCc1c(OCCCOc2ccc(C(=O)NC)c(OC)c2CC2CC2)ccc2c1OC(C(=O)O)CC2 (centres undefined) |  |  |  | 
 | 1.79 nM | CCCCC/C=C\C[C@@H](O)/C=C/C=C/C=C\[C@@H](O)CCCC(=O)O [LEUKOTRIENE_B4] |  |  |  | 
8.5 nM | 10.7 nM | CCCc1c(OCCCOc2ccc(C(=O)NC)c(OC)c2CC2CC2)ccc2c1O[C@@H](CCC(=O)O)CC2 | 0.2 mg/kg | 1200 µg |  | 
